Reference: patent US9017744B2, “Method of using isomaltulose to suppress blood glucose level increase” (Mitsui Sugar Co., Ltd., priority 2002, dated 2015)

Legend:
[1] = Blood glucose level test after ingesting drinks (Example 1); format: in vivo, human; conditions: for blood glucose level increase: FIG. 1
Experimental: Using each of the Comparative drinks as a control sample, a blood glucose level test after ingesting the drink was performed as will be described later. […] Using each of the Example drinks as a test sample, a blood glucose level test after ingesting the drink was performed. The blood glucose level test was as follows: Five healthy volunteers (4 males and 1 female), 31-40 aged, were selected as the test subjects. They took no breakfast on a test day and kept fasting for 12 hrs or more before the start of the test. Their bloods were collected before ingesting a drink (0 min), and 30 min, 60 min, 90 min, and 120 min after ingesting it. As a result their blood glucose levels are determined. One kind of drink was ingested for one test. Another drink was ingested on another day and the test was carried out once a day for total 8 days. The same five test subjects were applied to all the tests for blood glucose levels. In the Example 1, the free style Kissei kit (made by Kissei Pharmaceutical Co., LTD) was used to collect blood samples and test a blood glucose level.

[2] = Heat coloring of carbohydrate with glutamic acid (Test Example 1); format: physicochemical; conditions: for absorbance at a wavelength of 420 nm: 5 g carbohydrate + 1 g glutamic acid in 50 g
Experimental: 5 g of carbohydrate and 1 g of glutamic acid were dissolved in distilled water to prepare a sample having a total weight of 50 g. […] These samples were filled in 100 ml capped vials and then heated at 100° C. for 50 min. After the heating, samples were cooled and respective absorbances were measured at a wavelength of 420 nm.
Three same kinds of samples were prepared and treated in an autoclave at 121° C. for 20 min, that is, the same level as in retort sterilization for a canned food, and measured the absorbance at a wavelength of 420 nm.

[3] = Crystallization of 50 wt % solutions stored at 5° C. (Test Example 2); format: physicochemical
Experimental: Dissolution was performed until no crystal remained at 50° C. These vials were put in a refrigerator set at 5° C. to observe crystallization.

[4] = Body fat accumulation in mice fed feeds for 8 weeks (Example 3); format: in vivo, C57BL/6CrSlc(SPF) male mice
Excerpt: Mice were consecutively fed with a feed added with isomaltulose, a feed added with sucrose and no isomaltulose, and a feed added with both isomaltulose and sucrose to compare their body fat accumulation amount.
C57BL/6CrSlc(SPF) male mice (30 heads) aged 7 weeks were fed with a commercial powder feed (trade name: CRF-1 powder, made by Oriental Yeast Co., LTD) and water ad libitum to prefeed for a week. […] The groups were fed with their respective feeds and water ad libitum for 8 weeks. The feeding condition was as follows: temperature 22±3° C., humidity (relative humidity) 50±20%, ventilation cycles 13-17 times/hr, and lighting time 8:00-20:00 (light 12 hrs, dark 12 hrs).
After the end of the feeding, the mice were light anesthetized with ether and sectioned abdominally to exsanguinate from postcava to death. For a typical example of every group, digital photographs showing body fat accumulation inside the abdominal cavity were taken. Then, for all the cases, the kidney peripheral fat (including the retroperitoneal fat) and the epididymis peripheral fat were taken out to measure their wet weights separately in left and right. The mesenteric fat also was taken out to measure its wet weight. These three kinds of fat tissues are typical of visceral fat. […]

[5] = monohydrate; at 20° C.; cited from earlier work
[6] = rats; high fat diet, all sucrose replaced by isomaltulose, compared with sucrose-containing feed; cited from earlier work
[7] = autoclave at 121° C. for 20 min

OC[C@H]1O[C@@](CO)(O[C@H]2O[C@H](CO)[C@@H](O)[C@H](O)[C@H]2O)[C@@H](O)[C@@H]1O [sucrose, reference compound]
blood glucose level 30 minutes after ingesting ([1]; 25 g ingested alone (Comparative example)): sudden increase
blood glucose level 30 minutes after ingesting ([1]; 50 g ingested alone (Comparative example)): sudden increase
visual colour of sample [2, 7]: clearly light brown
crystallization observed ([3]; 50 wt % total sugar solution, during 6 days): no crystallization

OC[C@H]1O[C@H](OC[C@H]2OC(O)(CO)[C@@H](O)[C@@H]2O)[C@H](O)[C@@H](O)[C@@H]1O (stereo partly drawn) [isomaltulose, 6-O-alpha-D-Glucopyranosyl-D-fructofuranose]
increase in blood glucose level after consuming the carbohydrates ([1]; 25 g isomaltulose in combination with 25 g sucrose or 25 g glucose): no sudden increases
area under blood glucose level increase curve ([1]; 25 g isomaltulose in combination with 25 g sucrose or 25 g glucose, compared with the Comparative groups): significantly lower values
minimum intake of isomaltulose necessary to reduce an increase in blood glucose level ([1]; in vivo): ≥ 5 g
blood glucose level increase ([1]; simultaneous ingestion of 25 g isomaltulose and 25 g glucose, compared with 25 g glucose alone): reduced
blood glucose level increase ([1]; simultaneous ingestion of 25 g isomaltulose and 25 g sucrose, compared with 50 g sucrose alone and 25 g sucrose alone): reduced
isomaltulose ratio in total carbohydrate at which the GI value surely decreased ([1]; total carbohydrate weight 50 g, FIG. 4): ≥ 10%
ratio of isomaltulose in carbohydrate at which it reduces the accumulation of body fat ([4]; mouse, in vivo): ≥ 20%
minimum intake of isomaltulose necessary to reduce a body fat accumulation ([4]; presumed, in terms of a person having a body weight of 60 kg): ≥ 10 g
absorbance at a wavelength of 420 nm [2, 7]: 0.322
absorbance at a wavelength of 420 nm ([2]; heated at 100° C. for 50 min): 0.004
visual colour of sample [2, 7]: clearly deep brown
storage time at which crystallization began ([3]; 50 wt % solution, 100 ml): 2 days
amount of crystal ([3]; 50 wt % solution, 100 ml, after 6 days): 10.77 g
solubility [5]: 38.4 g in 100 g water
body fat accumulation amount [6]: lower body fat accumulation amount
